Assay results published in patent publication US20220081470A1, “THIAZOLYL PEPTIDES FOR THE TREATMENT NONTUBERCULOUS MYCOBACTERIAL INFECTIONS” (priority 2019, published 2022).
In brackets after ≈: the same amount, converted by molar mass. Where two headings read alike, the source gives them in different places.

Assays:
[1] = test system: Mycobacterium intracellulare; test: MIC by broth dilution (CLSI M24), resazurin readout; assay type: cell-based; details: M.intracellulare
Mycobacterium avium [2] = test: as above; assay type: cell-based; details: M.avium
Mycobacterium avium [3] = test: Minimum Bactericidal Concentration (MBC); assay type: cell-based; details: M.avium
Mycobacterium kansasii [4] = test: MIC by broth dilution (CLSI M24), resazurin readout; assay type: cell-based; details: M.kansasii
Mycobacterium abscessus [5] = test: as above; assay type: cell-based; details: Mycobacteroides abscessus; M.abscessess
[6] = test system: Mycobacterium nonchromogenicum; test: as above; assay type: cell-based; details: Mycolicibacter nonchromogenicus
Mycobacterium abscessus [7] = test: Minimum Bactericidal Concentration (MBC); assay type: cell-based; details: Mycobacteroides abscessus; M.abscessess
Mycobacterium kansasii [8] = test: Minimum Bactericidal Concentration (MBC); assay type: cell-based; details: M.kansasii
M. avium = test: In vitro drug combination study, checkerboard method; assay type: cell-based, Mycobacterium avium; details: for MIC: Mycobacterium avium, 144 h, drug alone, checkerboard, read-out: Individual MIC; for FIC index / Outcome: in combination with PM181108A
Mycobacterium fortuitum [9] = test: Minimum Bactericidal Concentration (MBC); assay type: cell-based; details: Mycolicibacterium fortuitum; M.fortuitum
Mycobacterium gordonae [10] = test: Minimum Bactericidal Concentration (MBC); assay type: cell-based; details: M.gordonae
Mycobacterium gordonae [11] = test: MIC by broth dilution (CLSI M24), resazurin readout; assay type: cell-based; details: M.gordonae
[12] = test system: Mycobacterium nonchromogenicum; test: Minimum Bactericidal Concentration (MBC); assay type: cell-based; details: Mycolicibacter nonchromogenicus
Mycobacterium fortuitum [13] = test: MIC by broth dilution (CLSI M24), resazurin readout; assay type: cell-based; details: Mycolicibacterium fortuitum; M.fortuitum
M. gordonae = test: In vitro drug combination study, checkerboard method; assay type: cell-based, Mycobacterium gordonae; details: for MIC: Mycobacterium gordonae, 144 h, drug alone, checkerboard, read-out: Individual MIC; for FIC index / Outcome: in combination with PM181108A
[14] = test system: Mycobacterium intracellulare; test: Minimum Bactericidal Concentration (MBC); assay type: cell-based; details: M.intracellulare
[15] = test system: M. abscessus in THP-1 macrophages; test: Intracellular efficacy in THP-1 macrophages; assay type: cell-based, Mycobacterium abscessus; details: M.abscessess in THP-1 macrophages
Method: (§1) To test drug efficacy against slow or non-replicating bacilli in the intracellular compartment, THP-1 cells were grown in RPMI medium supplemented with […] sodium pyruvate, 200 mM L-glutamine, 3.7 g of sodium bicarbonate (Sigma) per litre, and 10% foetal calf serum (Gibco-BRL Life Technologies) without any antibiotics. The macrophages were seeded in 96-well plates at a density of approximately 5×10^5 cells/flask, incubated overnight, and were induced by 50 nM phorbol 12-myristate 13-acetate (PMA) to achieve macrophage differentiated phenotypesat 37° C./48-72 hr/5% CO2 atmosphere. After 48 hr of activation, the THP-1 macrophages were infected with respective NTM strains at a multiplicity of infection (MOI) of 1:10/2 h at 37° C. with 5% CO2. The macrophage monolayers were washed twice with […] of phosphate-buffered saline (+Ca^2++Mg^2+) to remove the free bacteria. Sets of triplicate wells were lysed (0.05% SDS) at specific timepoints, and enumerated to estimate the numbers of intracellular NTM 2 h post-infection.
(§2) The residual intracellular viable mycobacteria were enumerated at 0, 3, 5, and 7 day on Middlebrook 7H11 agar plates. […] Inhibitory sigmoidal curves were generated by plotting the log10 cfu/ml against the Cbroth/MIC ratio and the AUC/MIC ratio.

[16] = test system: M. kansasii in THP-1 macrophages; test: Intracellular efficacy in THP-1 macrophages; assay type: cell-based, Mycobacterium kansasii
Method: as §1, §2

[17] = test system: M. gordonae in THP-1 macrophages; test: Intracellular efficacy in THP-1 macrophages; assay type: cell-based, Mycobacterium gordonae
Method: as §1, §2

[18] = test system: M. avium in THP-1 macrophages; test: Intracellular efficacy in THP-1 macrophages; assay type: cell-based, Mycobacterium avium
Method: as §1, §2

[19] = test system: M. fortuitum in THP-1 macrophages; test: Intracellular efficacy in THP-1 macrophages; assay type: cell-based, Mycobacterium fortuitum
Method: as §1, §2

[20] = test system: M. nonchromogenicum in THP-1 macrophages; test: Intracellular efficacy in THP-1 macrophages; assay type: cell-based, Mycobacterium nonchromogenicum
Method: as §1, §2

[21] = test system: M. intracellulare in THP-1 macrophages; test: Intracellular efficacy in THP-1 macrophages; assay type: cell-based, Mycobacterium intracellulare
Method: as §1, §2

[22] = M.nonchromogenicum, read-out: MIC
[23] = M.nonchromogenicum, read-out: MBC

| SMILES | MIC [1] [µg/mL] | MIC (Mycobacterium avium [2]) [µg/mL] | MBC (Mycobacterium avium [3]) [µg/mL] | MIC (Mycobacterium kansasii [4]) [µg/mL] | MIC (Mycobacterium abscessus [5]) [µg/mL] | MIC [6] [µg/mL] | MBC (Mycobacterium abscessus [7]) [µg/mL] | MBC (Mycobacterium kansasii [8]) [µg/mL] | MIC (M. avium) [µg/mL] | MBC (Mycobacterium fortuitum [9]) [µg/mL] | MBC (Mycobacterium gordonae [10]) [µg/mL] | MIC (Mycobacterium gordonae [11]) [µg/mL] | MIC (Mycobacterium fortuitum [13]) [µg/mL] | MBC [14] [µg/mL] | IC Emax (intracellular efficacy) [15] [log10 cfu/ml] | IC Emax (intracellular efficacy) [17] [log10 cfu/ml] | IC Emax (intracellular efficacy) [18] [log10 cfu/ml] | IC Emax (intracellular efficacy) [19] [log10 cfu/ml] | IC Emax (intracellular efficacy) [20] [log10 cfu/ml] | IC Emax (intracellular efficacy) [21] [log10 cfu/ml] | other results |
| --- | --- | --- | --- | --- | --- | --- | --- | --- | --- | --- | --- | --- | --- | --- | --- | --- | --- | --- | --- | --- | --- |
| NCC[C@H](O)C(=O)N[C@@H]1C[C@H](N)[C@@H](O[C@H]2O[C@H](CN)[C@@H](O)[C@H](O)[C@H]2O)[C@H](O)[C@H]1O[C@H]1O[C@H](CO)[C@@H](O)[C@H](N)[C@H]1O [Amikacin] | 1 (≈ 1.71 µM) | 2 (≈ 3.42 µM) | 8 (≈ 13.7 µM) | 4 (≈ 6.83 µM) | 4 (≈ 6.83 µM) | 2 (≈ 3.42 µM) | 16 (≈ 27.3 µM) | 16 (≈ 27.3 µM) | 4 | 2 (≈ 3.42 µM) | 8 (≈ 13.7 µM) | 2 (≈ 3.42 µM) | 2 (≈ 3.42 µM) | 2 (≈ 3.42 µM) | – | – | – | – | – | – | FIC index (M. avium): 0.80; Outcome (M. avium): Additive (>0.5-4.0, addition or indifference); MBC [12]: 8 µg/mL (≈ 13.7 µM); MIC (M. gordonae): 4 µg/mL; FIC index (M. gordonae): 0.90; Outcome (M. gordonae): Additive (>0.5-4.0, addition or indifference) |
| CC[C@H]1OC(=O)[C@H](C)[C@@H](O[C@H]2C[C@@](C)(OC)[C@@H](O)[C@H](C)O2)[C@H](C)[C@@H](O[C@@H]2O[C@H](C)C[C@H](N(C)C)[C@H]2O)[C@](C)(OC)C[C@@H](C)C(=O)[C@H](C)[C@@H](O)[C@]1(C)O [Clarithromycin] | 0.13 (≈ 0.174 µM) | 0.5 (≈ 0.668 µM) | 2 (≈ 2.67 µM) | 0.5 (≈ 0.668 µM) | 2 (≈ 2.67 µM) | 0.25 (≈ 0.334 µM) | 32 (≈ 42.8 µM) | 2 (≈ 2.67 µM) | 1 | > 32 | 1 (≈ 1.34 µM) | 0.5 (≈ 0.668 µM) | 32 (≈ 42.8 µM) | 0.5 (≈ 0.668 µM) | 0.70 | 1.26 | 1.00 | 0.35 | 0.82 | 1.78 | IC Emax (intracellular efficacy) [16]: 0.91 log10 cfu/ml; FIC index (M. avium): 0.46; Outcome (M. avium): Synergy (≤0.5, synergism); MBC [12]: 4 µg/mL (≈ 5.35 µM); MIC (M. gordonae): 1 µg/mL; FIC index (M. gordonae): 0.46; Outcome (M. gordonae): Synergy (≤0.5, synergism) |
| COc1c(N2C[C@@H]3CCCN[C@@H]3C2)c(F)cc2c(=O)c(C(=O)O)cn(C3CC3)c12 [Moxifloxacin] | 0.5 (≈ 1.25 µM) | 4 (≈ 9.96 µM) | 8 (≈ 19.9 µM) | 2 (≈ 4.98 µM) | 2 (≈ 4.98 µM) | 2 (≈ 4.98 µM) | 4 (≈ 9.96 µM) | 8 (≈ 19.9 µM) | – | 0.25 (≈ 0.623 µM) | 4 (≈ 9.96 µM) | 2 (≈ 4.98 µM) | < 0.06 | 1 (≈ 2.49 µM) | 1.00 | 1.23 | 1.00 | 1.60 | 0.34 | 1.46 | IC Emax (intracellular efficacy) [16]: 1.93 log10 cfu/ml; MBC [12]: 16 µg/mL (≈ 39.9 µM) |
| CO[C@H]1/C=C/O[C@@]2(C)Oc3c(C)c(O)c4c(O)c(c(/C=N/N5CCN(C)CC5)c(O)c4c3C2=O)NC(=O)/C(C)=C\C=C\[C@H](C)[C@H](O)[C@@H](C)[C@@H](O)[C@@H](C)[C@H](OC(C)=O)[C@@H]1C [Rifampicin] | 0.06 (≈ 0.0729 µM) | 0.25 (≈ 0.304 µM) | 1 (≈ 1.22 µM) | 0.13 (≈ 0.158 µM) | 16 (≈ 19.4 µM) | – | 32 (≈ 38.9 µM) | 16 (≈ 19.4 µM) | 0.5 | > 32 | 8 (≈ 9.72 µM) | 0.25 (≈ 0.304 µM) | 4 (≈ 4.86 µM) | 0.25 (≈ 0.304 µM) | 0.00 | 1.36 | 1.04 | 0.00 | 0.82 | 0.44 | MIC [6, 22]: 0.13 µg/mL (≈ 0.158 µM); Outcome (M. avium): Additive (>0.5-4.0, addition or indifference); MBC [12, 23]: 32 µg/mL (≈ 38.9 µM); MIC (M. gordonae): 0.5 µg/mL; Outcome (M. gordonae): Synergy (≤0.5, synergism) |
| C=C(NC(=O)C(=C)NC(=O)c1csc(C2=N[C@@H]3c4csc(n4)[C@H]4NC(=O)c5csc(n5)[C@H]([C@](C)(O)[C@@H](C)O)NC(=O)[C@H]5CSC(=N5)/C(=C/C)NC(=O)[C@H]([C@@H](C)O)NC(=O)c5csc(n5)[C@]3(CC2)NC(=O)[C@H](C)NC(=O)C(=C)NC(=O)[C@H](C)NC(=O)[C@H]([C@@H](C)CC)N[C@@H]2C=Cc3c([C@H](C)O)cc(nc3[C@H]2O)C(=O)O[C@@H]4C)n1)C(N)=O [Thiostrepton] | 0.13 (≈ 0.0781 µM) | 1 (≈ 0.601 µM) | 2 (≈ 1.2 µM) | 1 (≈ 0.601 µM) | 0.5 (≈ 0.3 µM) | – | 32 (≈ 19.2 µM) | 16 (≈ 9.61 µM) | – | > 32 | 2 (≈ 1.2 µM) | 0.5 (≈ 0.3 µM) | 2 (≈ 1.2 µM) | 1 (≈ 0.601 µM) | 0.00 | 0.72 | 1.19 | 0.00 | 0.49 | 0.67 | IC Emax (intracellular efficacy) [16]: 1.56 log10 cfu/ml; MIC [6, 22]: 0.5 µg/mL (≈ 0.3 µM); MBC [12, 23]: 16 µg/mL (≈ 9.61 µM) |
